Test results taken from patent US7695930B2, “Method for the detection, identification and/or quantification of microoganisms with peptidase activity using phenoxazinone derivatives as enzyme substrates” (Biomerieux, priority 2003, dated 2010).

How the values were obtained:
Test in all cases: Alanyl-peptidase detection on agar medium (Example 13)
Assay type in all cases: cell-based
Settings in all cases: 25 mg/l
Candida albicans = test system: Candida albicans
Experimental: (§1) The detection media were prepared by mixing 3.6 g of biogelytone (bioMérieux), 2.16 g of meat extract (bioMérieux), 1.26 g of malt extract (bioMérieux), 5.76 g of NaCl (Merck) and 10.8 g of agar (bioMérieux).
(§2) 720 ml of osmosed water were added to the powder, and the mixture was then melted in a waterbath at […]. The product was separated into two flasks, each of 360 ml. Autoclaving was carried out at 121° C. for 15 min and the product was cooled to […]. in a waterbath.
(§3) L-Alanyl-7-amino-4-methylcoumarin (Ala-AMC, Bachem) was then added to the first flask as a control, at the final concentration of 50 mg/l, and L-alanyl-9-aminobenzo[a]phenoxazin-5-one (Ala-ABP, substrate of the invention obtained in Example 2, in which the amino acid is L-alanine), was then added to the second flask at the final concentration of 25 mg/l.
(§4) The size of the colonies, their coloration and also the intensity of this coloration were noted.

Acinetobacter baumanii = test system: Acinetobacter baumanii
Experimental: as §1, §2, §3, §4

[1] = test system: Corynebacterium Pseudodiphteriticum
Experimental: as §1, §2, §3, §4

Enterobacter cloacae = test system: Enterobacter cloacae
Experimental: as §1, §2, §3, §4

Pseudomonas aeruginosa = test system: Pseudomonas aeruginosa; for color of the colony: key: B corresponds to fluorescent blue; R corresponds to pink
Experimental: as §1, §2, §3, §4

Serratia marcescens = test system: Serratia marcescens
Experimental: as §1, §2, §3, §4

Klebsiella pneumoniae = test system: Klebsiella pneumoniae
Experimental: as §1, §2, §3, §4

Hafnia alvei = test system: Hafnia alvei
Experimental: as §1, §2, §3, §4

Bacillus subtilis = test system: Bacillus subtilis
Experimental: as §1, §2, §3, §4

Candida glabrata = test system: Candida glabrata
Experimental: as §1, §2, §3, §4

Edwardsiella tarda = test system: Edwardsiella tarda
Experimental: as §1, §2, §3, §4

Serratia liquefaciens = test system: Serratia liquefaciens
Experimental: as §1, §2, §3, §4

Staphylococcus aureus = test system: Staphylococcus aureus
Experimental: as §1, §2, §3, §4

Candida krusei = test system: Candida krusei
Experimental: as §1, §2, §3, §4

Proteus mirabilis = test system: Proteus mirabilis
Experimental: as §1, §2, §3, §4

Saccharomyces cerevisiae = test system: Saccharomyces cerevisiae
Experimental: as §1, §2, §3, §4

Enterococcus faecium = test system: Enterococcus faecium
Experimental: as §1, §2, §3, §4

Salmonella typhimurium = test system: Salmonella typhimurium
Experimental: as §1, §2, §3, §4

Listeria innocua = test system: Listeria innocua
Experimental: as §1, §2, §3, §4

Enterococcus faecalis = test system: Enterococcus faecalis
Experimental: as §1, §2, §3, §4

Escherichia coli = test system: Escherichia coli
Experimental: as §1, §2, §3, §4

Streptococcus agalactiae = test system: Streptococcus agalactiae
Experimental: as §1, §2, §3, §4

Streptococcus pyogenes = test system: Streptococcus pyogenes
Experimental: as §1, §2, §3, §4

[2] = test system: Staphylococcus saprophyticus
Experimental: as §1, §2, §3, §4

[3] = test system: Staphylococcus epidermidis
Experimental: as §1, §2, §3, §4

L-alanyl-9-aminobenzo[a]phenoxazin-5-one [Ala-ABP]
growth diameter (Candida albicans; 24 h): 0.3 mm
color of the colony (Candida albicans; 48 h): R
growth diameter (Candida albicans; 48 h): 0.5 mm
intensity of coloration, scale 0 to 4 (Candida albicans; 48 h): 2
color of the colony (Acinetobacter baumanii; 24 h): R
growth diameter (Acinetobacter baumanii; 24 h): 1.7 mm
intensity of coloration, scale 0 to 4 (Acinetobacter baumanii; 24 h): 3
color of the colony (Acinetobacter baumanii; 48 h): R
growth diameter (Acinetobacter baumanii; 48 h): 1.7 mm
intensity of coloration, scale 0 to 4 (Acinetobacter baumanii; 48 h): 3
growth diameter ([1]; 24 h): 0 mm
growth diameter ([1]; 48 h): 0 mm
color of the colony (Enterobacter cloacae; 24 h): R
growth diameter (Enterobacter cloacae; 24 h): 0.7 mm
intensity of coloration, scale 0 to 4 (Enterobacter cloacae; 24 h): 1.5
color of the colony (Enterobacter cloacae; 48 h): R
growth diameter (Enterobacter cloacae; 48 h): 0.7 mm
intensity of coloration, scale 0 to 4 (Enterobacter cloacae; 48 h): 2
color of the colony (Pseudomonas aeruginosa; 24 h): R
growth diameter (Pseudomonas aeruginosa; 24 h): 0.3 mm
intensity of coloration, scale 0 to 4 (Pseudomonas aeruginosa; 24 h): 1.7
color of the colony (Pseudomonas aeruginosa; 48 h): R
growth diameter (Pseudomonas aeruginosa; 48 h): 0.5 mm
intensity of coloration, scale 0 to 4 (Pseudomonas aeruginosa; 48 h): 3
color of the colony (Serratia marcescens; 24 h): R
growth diameter (Serratia marcescens; 24 h): 0.5 mm
intensity of coloration, scale 0 to 4 (Serratia marcescens; 24 h): 2
color of the colony (Serratia marcescens; 48 h): R
growth diameter (Serratia marcescens; 48 h): 1 mm
intensity of coloration, scale 0 to 4 (Serratia marcescens; 48 h): 3
color of the colony (Klebsiella pneumoniae; 24 h): R
growth diameter (Klebsiella pneumoniae; 24 h): 1 mm
intensity of coloration, scale 0 to 4 (Klebsiella pneumoniae; 24 h): 3
color of the colony (Klebsiella pneumoniae; 48 h): R
growth diameter (Klebsiella pneumoniae; 48 h): 1.5 mm
intensity of coloration, scale 0 to 4 (Klebsiella pneumoniae; 48 h): 3
color of the colony (Hafnia alvei; 24 h): R
growth diameter (Hafnia alvei; 24 h): 0.5 mm
intensity of coloration, scale 0 to 4 (Hafnia alvei; 24 h): 0.5
color of the colony (Hafnia alvei; 48 h): R
growth diameter (Hafnia alvei; 48 h): 0.5 mm
intensity of coloration, scale 0 to 4 (Hafnia alvei; 48 h): 1.5
growth diameter (Bacillus subtilis; 24 h): 0.1 mm
growth diameter (Bacillus subtilis; 48 h): 0.5 mm
growth diameter (Candida glabrata; 24 h): 0.1 mm
growth diameter (Candida glabrata; 48 h): 0.3 mm
color of the colony (Edwardsiella tarda; 24 h): R
growth diameter (Edwardsiella tarda; 24 h): 0.5 mm
intensity of coloration, scale 0 to 4 (Edwardsiella tarda; 24 h): 1
color of the colony (Edwardsiella tarda; 48 h): R
growth diameter (Edwardsiella tarda; 48 h): 0.7 mm
intensity of coloration, scale 0 to 4 (Edwardsiella tarda; 48 h): 3
color of the colony (Serratia liquefaciens; 24 h): R
growth diameter (Serratia liquefaciens; 24 h): 0.7 mm
intensity of coloration, scale 0 to 4 (Serratia liquefaciens; 24 h): 3
color of the colony (Serratia liquefaciens; 48 h): R
growth diameter (Serratia liquefaciens; 48 h): 1.3 mm
intensity of coloration, scale 0 to 4 (Serratia liquefaciens; 48 h): 3
growth diameter (Staphylococcus aureus; 24 h): 0.1 mm
growth diameter (Staphylococcus aureus; 48 h): 0.3 mm
growth diameter (Candida krusei; 24 h): 0.5 mm
growth diameter (Candida krusei; 48 h): 1 mm
color of the colony (Proteus mirabilis; 24 h): R
growth diameter (Proteus mirabilis; 24 h): 1.7 mm
intensity of coloration, scale 0 to 4 (Proteus mirabilis; 24 h): 0.5
color of the colony (Proteus mirabilis; 48 h): R
growth diameter (Proteus mirabilis; 48 h): 1.7 mm
intensity of coloration, scale 0 to 4 (Proteus mirabilis; 48 h): 1.5
growth diameter (Saccharomyces cerevisiae; 24 h): 0 mm
growth diameter (Saccharomyces cerevisiae; 48 h): 0.2 mm
growth diameter (Enterococcus faecium; 24 h): 0.2 mm
growth diameter (Enterococcus faecium; 48 h): 0.3 mm
color of the colony (Salmonella typhimurium; 24 h): R
growth diameter (Salmonella typhimurium; 24 h): 1 mm
intensity of coloration, scale 0 to 4 (Salmonella typhimurium; 24 h): 0.5
color of the colony (Salmonella typhimurium; 48 h): R
growth diameter (Salmonella typhimurium; 48 h): 1.5 mm
intensity of coloration, scale 0 to 4 (Salmonella typhimurium; 48 h): 1
growth diameter (Listeria innocua; 24 h): 0.2 mm
growth diameter (Listeria innocua; 48 h): 0.3 mm
growth diameter (Enterococcus faecalis; 24 h): 0.3 mm
growth diameter (Enterococcus faecalis; 48 h): 0.3 mm
color of the colony (Escherichia coli; 24 h): R
growth diameter (Escherichia coli; 24 h): 1.7 mm
intensity of coloration, scale 0 to 4 (Escherichia coli; 24 h): 1
color of the colony (Escherichia coli; 48 h): R
growth diameter (Escherichia coli; 48 h): 1.8 mm
intensity of coloration, scale 0 to 4 (Escherichia coli; 48 h): 1
growth diameter (Streptococcus agalactiae; 24 h): 0.1 mm
growth diameter (Streptococcus agalactiae; 48 h): 0.2 mm
growth diameter (Streptococcus pyogenes; 24 h): 0.1 mm
growth diameter (Streptococcus pyogenes; 48 h): 0.2 mm
growth diameter ([2]; 24 h): 0.1 mm
growth diameter ([2]; 48 h): 0.3 mm
growth diameter ([3]; 24 h): 0.1 mm
growth diameter ([3]; 48 h): 0.1 mm
